Laboratory results reported in article PMC9856672, “SGC-CAMKK2-1: A Chemical Probe for CAMKK2” (Cells, 2023).

Experiments:
EGFR = biological target: T1, EGFR (Homo sapiens, UniProt P00533); assay: KINOMEscan 1 μM, EGFR; type: binding; settings: 1000 nM; Entrez EGFR; read-out: Percent Control
T1 construct: purchased Eurofins DiscoverX KINOMEscan
Description: (§1) Supplement cells-12-00287-s001.zip/File S2. KinomeScan data for the CAMKK2 probe and negative control.xlsx, sheet "SGC-CAMKK2-1" | column: Percent Control

EIF2AK1 = biological target: T2, EIF2AK1 (Homo sapiens, UniProt Q9BQI3); assay: KINOMEscan 1 μM, EIF2AK1; type: binding; settings: 1000 nM; Entrez EIF2AK1; read-out: Percent Control
T2 construct: purchased Eurofins DiscoverX KINOMEscan
Description: as §1

T1 sequence (P00533 25-1210): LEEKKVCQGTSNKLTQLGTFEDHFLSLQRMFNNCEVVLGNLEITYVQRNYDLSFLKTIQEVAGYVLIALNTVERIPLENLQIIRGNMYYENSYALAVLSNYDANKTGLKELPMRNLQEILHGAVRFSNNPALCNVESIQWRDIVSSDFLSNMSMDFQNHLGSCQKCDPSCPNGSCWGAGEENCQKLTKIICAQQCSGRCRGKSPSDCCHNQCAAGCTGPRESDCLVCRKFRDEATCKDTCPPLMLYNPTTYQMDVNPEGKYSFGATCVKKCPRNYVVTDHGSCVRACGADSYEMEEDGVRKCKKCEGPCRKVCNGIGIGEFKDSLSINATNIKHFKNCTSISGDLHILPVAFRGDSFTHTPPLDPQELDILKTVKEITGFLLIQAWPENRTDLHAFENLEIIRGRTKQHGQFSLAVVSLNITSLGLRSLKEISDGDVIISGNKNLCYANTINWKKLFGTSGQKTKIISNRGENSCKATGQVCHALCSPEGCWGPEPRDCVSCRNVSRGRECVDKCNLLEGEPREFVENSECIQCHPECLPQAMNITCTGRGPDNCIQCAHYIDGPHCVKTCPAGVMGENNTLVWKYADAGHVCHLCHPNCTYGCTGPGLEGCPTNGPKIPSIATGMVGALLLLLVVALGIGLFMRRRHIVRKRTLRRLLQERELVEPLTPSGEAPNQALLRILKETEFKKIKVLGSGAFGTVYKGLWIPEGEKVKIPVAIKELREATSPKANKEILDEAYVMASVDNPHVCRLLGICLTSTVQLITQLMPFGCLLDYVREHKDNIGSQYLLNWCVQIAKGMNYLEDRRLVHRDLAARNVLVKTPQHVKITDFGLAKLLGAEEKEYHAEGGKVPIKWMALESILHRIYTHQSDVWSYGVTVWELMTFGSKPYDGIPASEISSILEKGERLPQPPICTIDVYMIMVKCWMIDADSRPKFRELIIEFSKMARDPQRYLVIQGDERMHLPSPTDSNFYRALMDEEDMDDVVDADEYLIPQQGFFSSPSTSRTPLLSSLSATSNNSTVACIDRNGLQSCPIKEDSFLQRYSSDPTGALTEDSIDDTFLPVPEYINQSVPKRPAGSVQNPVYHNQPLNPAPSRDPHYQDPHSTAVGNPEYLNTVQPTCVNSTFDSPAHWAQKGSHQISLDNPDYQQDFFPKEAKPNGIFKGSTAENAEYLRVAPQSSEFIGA
T2 sequence (Q9BQI3 whole entry): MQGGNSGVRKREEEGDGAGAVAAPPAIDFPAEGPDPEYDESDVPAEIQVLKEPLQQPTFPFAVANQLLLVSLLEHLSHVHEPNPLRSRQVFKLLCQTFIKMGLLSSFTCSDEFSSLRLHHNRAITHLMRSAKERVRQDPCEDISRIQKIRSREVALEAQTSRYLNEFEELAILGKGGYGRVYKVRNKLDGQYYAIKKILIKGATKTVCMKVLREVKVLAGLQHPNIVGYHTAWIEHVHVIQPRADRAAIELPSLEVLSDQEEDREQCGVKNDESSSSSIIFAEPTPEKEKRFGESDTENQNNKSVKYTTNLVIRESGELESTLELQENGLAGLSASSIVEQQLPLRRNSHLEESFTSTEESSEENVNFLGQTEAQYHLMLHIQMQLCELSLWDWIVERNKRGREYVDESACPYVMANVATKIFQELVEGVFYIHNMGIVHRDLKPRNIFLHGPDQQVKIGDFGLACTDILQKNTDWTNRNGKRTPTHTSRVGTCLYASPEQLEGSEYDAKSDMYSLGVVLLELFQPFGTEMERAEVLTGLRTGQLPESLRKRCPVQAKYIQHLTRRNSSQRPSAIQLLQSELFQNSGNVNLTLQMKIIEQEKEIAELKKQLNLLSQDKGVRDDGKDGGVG

`Cc1cccc(-c2cnc3occ(-c4ccc(C(=O)O)c(C5CCCC5)c4)c3c2)c1` [SGC-CAMKK2-1 (YL-36)] was tested, and the remaining binding at 1 µM (EGFR) was 91% and the remaining binding at 1 µM (EIF2AK1) was 100%.
